Test results: PubChem BioAssay (NCI)
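At the GI50, growth is halved. TGI is the concentration that stops growth completely.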

How the values were obtained:
Assay in all cases: growth of human tumour cells (NCI), 384-well format
[1] = test system: T-47D breast
[2] = test system: UACC-257 melanoma
[3] = test system: U251 glioblastoma
[4] = test system: A549 NSCLC
[5] = test system: KM12 colon
[6] = test system: RXF 393 renal
[7] = test system: HL-60(TB) leukemia
[8] = test system: SF-539 CNS
[9] = test system: NCI-H460 NSCLC
[10] = test system: DU-145 prostate
[11] = test system: ACHN renal
[12] = test system: MDA-MB-231 breast
[13] = test system: MOLT-4 leukemia
[14] = test system: MDA-MB-468 breast
[15] = test system: NCI-H522 lung
[16] = test system: UO-31 renal
[17] = test system: HOP-92 NSCLC
[18] = test system: EKVX NSCLC
[19] = test system: SK-MEL-2 melanoma
[20] = test system: M14 melanoma
[21] = test system: SW-620 colon
[22] = test system: HCT-116 colon
[23] = test system: OVCAR-3 ovarian
[24] = test system: 786-0 renal
[25] = test system: SK-OV-3 ovarian
[26] = test system: COLO 205 colon
[27] = test system: HCT-15 colon
[28] = test system: IGROV1 ovarian
[29] = test system: CAKI-1 renal
[30] = test system: MCF7 breast
[31] = test system: SF-295 CNS
[32] = test system: NCI-H23 lung
[33] = test system: HS 578T breast
[34] = test system: UACC-62 melanoma
[35] = test system: NCI-H322M lung
[36] = test system: OVCAR-4 ovarian
[37] = test system: A498 renal
[38] = test system: PC-3 prostate
[39] = test system: SK-MEL-5 melanoma
[40] = test system: MDA-MB-435 melanoma
[41] = test system: SN12C renal
[42] = test system: SNB-19 CNS
[43] = test system: HT29 colon
[44] = test system: K-562 leukemia
[45] = test system: SF-268 CNS
[46] = test system: OVCAR-8 ovarian
[47] = test system: SK-MEL-28 melanoma
[48] = test system: SNB-75 CNS
[49] = test system: OVCAR-5 ovarian
[50] = test system: TK-10 renal
[51] = test system: NCI-H226 lung
[52] = test system: SR leukemia
[53] = test system: HOP-62 NSCLC
[54] = test system: MALME-3M melanoma
[55] = test system: BT-549 breast

Q: What does the source list for C[C@@H]1Cc2c([nH]c3ccccc23)[C@@H](c2c(F)cc(NC3CN(CCCF)C3)cc2F)N1CC(F)(F)CO?
A: GI50 [1]: 1.3 µM; TGI [1]: 2.69 µM; GI50 [2]: 1.56 µM; TGI [2]: 2.91 µM; GI50 [3]: 1.77 µM; TGI [3]: 3.32 µM; GI50 [4]: 4.1 µM; TGI [4]: 14.5 µM; GI50 [5]: 1.73 µM; TGI [5]: 3.16 µM; GI50 [6]: 1.34 µM; TGI [6]: 2.88 µM; GI50 [7]: 1.39 µM; TGI [7]: 2.69 µM; GI50 [8]: 1.64 µM; TGI [8]: 3.25 µM; GI50 [9]: 1.47 µM; TGI [9]: 2.86 µM; GI50 [10]: 2.5 µM; TGI [10]: 6.5 µM; GI50 [11]: 1.71 µM; TGI [11]: 3.16 µM; GI50 [12]: 3.54 µM; TGI [12]: 12.1 µM; GI50 [13]: 1.39 µM; TGI [13]: 2.68 µM; GI50 [14]: 1.33 µM; TGI [14]: 2.75 µM; GI50 [15]: 2.36 µM; TGI [15]: 4.63 µM; GI50 [16]: 1.78 µM; TGI [16]: 3.81 µM; GI50 [17]: 1.79 µM; TGI [17]: 3.68 µM; GI50 [18]: 1.87 µM; TGI [18]: 6.39 µM; GI50 [19]: 1.63 µM; TGI [19]: 2.98 µM; GI50 [20]: 1.78 µM; TGI [20]: 3.17 µM; GI50 [21]: 1.71 µM; TGI [21]: 3.12 µM; GI50 [22]: 1.78 µM; TGI [22]: 3.21 µM; GI50 [23]: 1.88 µM; TGI [23]: 4.05 µM; GI50 [24]: 1.82 µM; TGI [24]: 3.23 µM; GI50 [25]: 1.83 µM; TGI [25]: 3.91 µM; GI50 [26]: 2.07 µM; TGI [26]: 3.56 µM; GI50 [27]: 1.95 µM; TGI [27]: 3.74 µM; GI50 [28]: 1.84 µM; TGI [28]: 4.33 µM; GI50 [29]: 1.66 µM; TGI [29]: 3.25 µM; TGI [30]: 1.41 µM; GI50 [31]: 1.97 µM; TGI [31]: 3.68 µM; GI50 [32]: 5.52 µM; TGI [32]: 16.9 µM; GI50 [33]: 1.41 µM; TGI [33]: 2.73 µM; GI50 [34]: 1.58 µM; TGI [34]: 2.95 µM; GI50 [35]: 2.81 µM; TGI [35]: 6.54 µM; GI50 [36]: 1.32 µM; TGI [36]: 4.65 µM; GI50 [37]: 1.45 µM; TGI [37]: 2.82 µM; GI50 [38]: 1.84 µM; TGI [38]: 3.88 µM; GI50 [39]: 1.49 µM; TGI [39]: 2.82 µM; GI50 [40]: 1.73 µM; TGI [40]: 3.11 µM; GI50 [41]: 4.89 µM; TGI [41]: 16.5 µM; GI50 [42]: 10.6 µM; TGI [42]: 22.4 µM; GI50 [43]: 1.71 µM; TGI [43]: 3.13 µM; GI50 [44]: 1.59 µM; TGI [44]: 2.95 µM; GI50 [45]: 1.95 µM; TGI [45]: 4.11 µM; GI50 [46]: 2.7 µM; TGI [46]: 8.09 µM; GI50 [47]: 1.6 µM; TGI [47]: 2.96 µM; GI50 [48]: 1.43 µM; TGI [48]: 3.22 µM; GI50 [49]: 4.09 µM; TGI [49]: 15.4 µM; GI50 [50]: 1.75 µM; TGI [50]: 3.26 µM; GI50 [51]: 2.35 µM; TGI [51]: 7.78 µM; GI50 [52]: 1.67 µM; TGI [52]: 3.03 µM; GI50 [53]: 2.37 µM; TGI [53]: 6.24 µM; GI50 [54]: 1.55 µM; TGI [54]: 2.89 µM; GI50 [55]: 1.44 µM; TGI [55]: 2.85 µM
